Experimental findings from patent publication US7300664B1, “Vaginally administrable progesterone-containing tablets and method for preparing same” (Ferring B.V., priority 1998, dated 2007) are described below.

A short description of series [1]: Single-dose pharmacokinetics of progesterone vaginal tablets in post-menopausal women (Example 4, day 0). As to conditions: single vaginal tablet, mean; for Tmax / half-life: female, human, serum; for half-life: read-out: T1/2 (mean elimination half-life) (converted); for Cmax: read-out: Cmax (maximal serum concentration). The class given is in vivo. Here is the method:
The pharmacokinetics and clinical use of tablets prepared in accordance with the invention were evaluated as follows: 50 healthy, post-menopausal women with intact uteri, 39 of whom had suffered premature menopause and 11 who were truly postmenopausal, all of whom were undergoing hormone replacement therapy (HRT), submitted blood samples for determination of baseline profiles of hormones (progesterone and other hormones) and other biochemicals (bilirubin, cholesterol, etc.). The blood samples were taken at 8 AM on the first day of the evaluation (day 0) in a fasting state, by intravenous indwelling catheter which was introduced into the cubital vein. Non-estrogen primed postmenopausal women were chosen in order to avoid confusion with endogenous progesterone secretion and estrogen influence on vaginal mucosa absorption (Villanueva et al., Fertil. Steril. 35 (1981), 433-437). The women then self-administered the progesterone vaginal tablet using a plastic applicator and lay down for 20 minutes. Repeat blood samples for progesterone concentration were withdrawn 0.5, 1, 2, 4, 6, 8, 10, 12 and 24 hours after the vaginal insertion. Blood was allowed to clot at room temperature for 1 hour, after which the serum was separated by centrifugation and stored at −20° C. until analysis. Of the 50 women who participated in the evaluation, 20 were allocated tablets containing 50 mg progesterone, and the remainder of the participants received tablets containing 100 mg progesterone. […] The mean […] (Tmax), mean elimination half-life (T1/2), maximal serum concentration (Cmax), and AUC (area under the curve, i.e. total amount of plasma progesterone observed) derived from the blood samples taken on day 0 of the evaluation are summarized in Table II.

Series [2] in a line: Clinical use: twice-daily vaginal tablets, blood samples on days 14 and 30 (Example 4). As to conditions: female, human, serum, other: vaginal, fasting morning sample, read-out: Blood Progesterone levels. The format is in vivo, women. Here is the method: The pharmacokinetics and clinical use of tablets prepared in accordance with the invention were evaluated as follows: 50 healthy, post-menopausal women with intact uteri, 39 of whom had suffered premature menopause and 11 who were truly postmenopausal, all of whom were undergoing hormone replacement therapy (HRT), submitted blood samples for determination of baseline profiles of hormones (progesterone and other hormones) and other biochemicals (bilirubin, cholesterol, etc.). The blood samples were taken at 8 AM on the first day of the evaluation (day 0) in a fasting state, by intravenous indwelling catheter which was introduced into the cubital vein. Non-estrogen primed postmenopausal women were chosen in order to avoid confusion with endogenous progesterone secretion and estrogen influence on vaginal mucosa absorption (Villanueva et al., Fertil. Steril. 35 (1981), 433-437). To evaluate clinical use of the drug, the women were instructed to insert tablets prepared in accordance with the present invention, containing the same dose as administered on day 0, twice daily starting on day 1, and to […] for 20 minutes after each insertion. On days 14 and 30, blood samples for comparison with the baseline were drawn in the morning while the subjects were in a fasting state. Of the 50 women who participated in the evaluation, 20 were allocated tablets containing 50 mg progesterone, and the remainder of the participants received tablets containing 100 mg progesterone.

The mark [3] stands for this setting: 50 mg progesterone, 20 subjects.
The mark [4] stands for this setting: 100 mg progesterone, 30 subjects.

Structures are written as SMILES. Like-named read-outs stand apart in the source and are kept apart here.

Broadly, the Tmax is the time at which the peak concentration occurs. Take `CC(=O)[C@H]1CC[C@H]2[C@@H]3CCC4=CC(=O)CC[C@]4(C)[C@H]3CC[C@]12C` [Progesterone, progesterone]: the time of peak concentration (Tmax) in series [1] (setting [3]) stood at 6.1 h; in series [1] (setting [4]), 6.4 h. Further, the half-life in series [1] (setting [3]) was 13.2 h; in series [1] (setting [4]), 13.7 h. Moreover, the “AUC (area under the curve)” value in series [1] (setting [3]) was determined as 154.15 nmol/h/L; in series [1] (100 mg progesterone, 30 subjects, P = 0.001), 247.61 nmol/h/L. Besides, the Cmax was found to be 20.4 nM in series [1] (setting [3]) and 31.6 nM in series [1] (100 mg progesterone, 30 subjects, P = 0.0004). Moreover, the concentration at 14 day in series [2] (50 mg twice daily, Day 14, 50 mg tablet twice daily, 20 subjects) worked out at 17.5 nM; in series [2] (100 mg twice daily, Day 14, 100 mg tablet twice daily, 30 subjects), 26.1 nM. In addition, the concentration at 30 day in series [2] (50 mg twice daily, Day 30, 50 mg tablet twice daily, 20 subjects) is 17.4 nM; in series [2] (100 mg twice daily, Day 30, 100 mg tablet twice daily, 30 subjects), 21.4 nM.
